Assay results published in the supplement of paper PMC10307832.

Key:
Assay in all cases: relative viability (nuclei count vs DMSO), 5 days (fraction); higher = more cells survive
LCLC-97TM1 = test system: LCLC-97TM1
In short: (§1)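 Medians of duplicate plates are given as relative viability. That measure is the nuclei count in treated wells divided by the count in vehicle wells. Counts were taken on 4× images of lung cancer cell lines in 1536-well plates, 5 days after pin-tool dosing the day after seeding with one drug alone or a fixed anchor-drug dose plus five library-drug doses (not always all listed) in √10 steps.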

NCI-H2023 = test system: NCI-H2023
In short: as §1

HOP-62 = test system: HOP-62
In short: as §1

NCI-H2347 = test system: NCI-H2347
In short: as §1

EMC-BAC-2 = test system: EMC-BAC-2
In short: as §1

EPLC-272H = test system: EPLC-272H
In short: as §1

NCI-H661 = test system: NCI-H661
In short: as §1

NCI-H647 = test system: NCI-H647
In short: as §1

SW 1573 = test system: SW 1573
In short: as §1

LXF-289 = test system: LXF-289
In short: as §1

NCI-H322M = test system: NCI-H322M
In short: as §1

NCI-H2009 = test system: NCI-H2009
In short: as §1

NCI-H1563 = test system: NCI-H1563
In short: as §1

NCI-H727 = test system: NCI-H727
In short: as §1

H3255 = test system: H3255
In short: as §1

PC-14 = test system: PC-14
In short: as §1

NCI-H1650 = test system: NCI-H1650
In short: as §1

NCI-H1993 = test system: NCI-H1993
In short: as §1

NCI-H2085 = test system: NCI-H2085
In short: as §1

SK-LU-1 = test system: SK-LU-1
In short: as §1

NCI-H2342 = test system: NCI-H2342
In short: as §1

NCI-H2126 = test system: NCI-H2126
In short: as §1

NCI-H1915 = test system: NCI-H1915
In short: as §1

NC(=O)Nc1cc(-c2cccc(F)c2)sc1C(=O)N[C@H]1CCCNC1 [AZD7762] + COc1cccc2cc(-c3nc([C@H]4CC[C@H](C(=O)O)CC4)n4ncnc(N)c34)[nH]c12 [OSI-027] (partner 0.5 µM)
relative viability (LCLC-97TM1; first compound 0.01 µM): 0.582 | relative viability (LCLC-97TM1; first compound 0.03162 µM): 0.577 | relative viability (LCLC-97TM1; first compound 0.1 µM): 0.511 | relative viability (LCLC-97TM1; first compound 0.3162 µM): 0.617 | relative viability (LCLC-97TM1; first compound 1 µM): 0.44 | relative viability (NCI-H2023; first compound 0.01 µM): 0.405 | relative viability (NCI-H2023; first compound 0.03162 µM): 0.331 | relative viability (NCI-H2023; first compound 0.1 µM): 0.216 | relative viability (NCI-H2023; first compound 0.3162 µM): 0.116 | relative viability (NCI-H2023; first compound 1 µM): 0.105 | relative viability (HOP-62; first compound 0.01 µM): 0.759 | relative viability (HOP-62; first compound 0.03162 µM): 0.89 | relative viability (HOP-62; first compound 0.1 µM): 0.743 | relative viability (HOP-62; first compound 0.3162 µM): 0.71 | relative viability (HOP-62; first compound 1 µM): 0.552 | relative viability (NCI-H2347; first compound 0.01 µM): 0.433 | relative viability (NCI-H2347; first compound 0.03162 µM): 0.529 | relative viability (NCI-H2347; first compound 0.1 µM): 0.412 | relative viability (NCI-H2347; first compound 0.3162 µM): 0.395 | relative viability (NCI-H2347; first compound 1 µM): 0.356 | relative viability (EMC-BAC-2; first compound 0.01 µM): 0.349 | relative viability (EMC-BAC-2; first compound 0.03162 µM): 0.435 | relative viability (EMC-BAC-2; first compound 0.1 µM): 0.465 | relative viability (EMC-BAC-2; first compound 0.3162 µM): 0.345 | relative viability (EMC-BAC-2; first compound 1 µM): 0.405 | relative viability (EPLC-272H; first compound 0.01 µM): 0.299 | relative viability (EPLC-272H; first compound 0.03162 µM): 0.332 | relative viability (EPLC-272H; first compound 0.1 µM): 0.271 | relative viability (EPLC-272H; first compound 0.3162 µM): 0.27 | relative viability (EPLC-272H; first compound 1 µM): 0.115 | relative viability (NCI-H661; first compound 0.01 µM): 0.731 | relative viability (NCI-H661; first compound 0.03162 µM): 0.717 | relative viability (NCI-H661; first compound 0.1 µM): 0.616 | relative viability (NCI-H661; first compound 0.3162 µM): 0.559 | relative viability (NCI-H661; first compound 1 µM): 0.319 | relative viability (NCI-H647; first compound 0.01 µM): 0.656 | relative viability (NCI-H647; first compound 0.03162 µM): 0.55 | relative viability (NCI-H647; first compound 0.1 µM): 0.714 | relative viability (NCI-H647; first compound 0.3162 µM): 0.6 | relative viability (NCI-H647; first compound 1 µM): 0.172 | relative viability (SW 1573; first compound 0.01 µM): 0.69 | relative viability (SW 1573; first compound 0.03162 µM): 0.65 | relative viability (SW 1573; first compound 0.1 µM): 0.742 | relative viability (SW 1573; first compound 0.3162 µM): 0.422 | relative viability (SW 1573; first compound 1 µM): 0.176 | relative viability (LXF-289; first compound 0.01 µM): 0.61 | relative viability (LXF-289; first compound 0.03162 µM): 0.835 | relative viability (LXF-289; first compound 0.1 µM): 0.886 | relative viability (LXF-289; first compound 0.3162 µM): 0.864 | relative viability (LXF-289; first compound 1 µM): 0.971 | relative viability (NCI-H322M; first compound 0.01 µM): 0.555 | relative viability (NCI-H322M; first compound 0.03162 µM): 0.581 | relative viability (NCI-H322M; first compound 0.1 µM): 0.562 | relative viability (NCI-H322M; first compound 0.3162 µM): 0.254 | relative viability (NCI-H322M; first compound 1 µM): 0.255 | relative viability (NCI-H2009; first compound 0.01 µM): 0.664 | relative viability (NCI-H2009; first compound 0.03162 µM): 0.736 | relative viability (NCI-H2009; first compound 0.1 µM): 0.73 | relative viability (NCI-H2009; first compound 0.3162 µM): 0.601 | relative viability (NCI-H2009; first compound 1 µM): 0.459 | relative viability (NCI-H1563; first compound 0.01 µM): 0.792 | relative viability (NCI-H1563; first compound 0.03162 µM): 0.781 | relative viability (NCI-H1563; first compound 0.1 µM): 0.748 | relative viability (NCI-H1563; first compound 0.3162 µM): 0.804 | relative viability (NCI-H1563; first compound 1 µM): 0.771 | relative viability (NCI-H727; first compound 0.01 µM): 0.649 | relative viability (NCI-H727; first compound 0.03162 µM): 0.791 | relative viability (NCI-H727; first compound 0.1 µM): 0.425 | relative viability (NCI-H727; first compound 0.3162 µM): 0.52 | relative viability (NCI-H727; first compound 1 µM): 0.358 | relative viability (H3255; first compound 0.01 µM): 0.572 | relative viability (H3255; first compound 0.03162 µM): 0.506 | relative viability (H3255; first compound 0.1 µM): 0.534 | relative viability (H3255; first compound 0.3162 µM): 0.629 | relative viability (H3255; first compound 1 µM): 0.607 | relative viability (PC-14; first compound 0.01 µM): 0.847 | relative viability (PC-14; first compound 0.03162 µM): 0.816 | relative viability (PC-14; first compound 0.1 µM): 0.734 | relative viability (PC-14; first compound 0.3162 µM): 0.287 | relative viability (PC-14; first compound 1 µM): 0.0799 | relative viability (NCI-H1650; first compound 0.01 µM): 0.688 | relative viability (NCI-H1650; first compound 0.03162 µM): 0.638 | relative viability (NCI-H1650; first compound 0.1 µM): 0.708 | relative viability (NCI-H1650; first compound 0.3162 µM): 0.425 | relative viability (NCI-H1650; first compound 1 µM): 0.206 | relative viability (NCI-H1993; first compound 0.01 µM): 0.577 | relative viability (NCI-H1993; first compound 0.03162 µM): 0.591 | relative viability (NCI-H1993; first compound 0.1 µM): 0.58 | relative viability (NCI-H1993; first compound 0.3162 µM): 0.532 | relative viability (NCI-H1993; first compound 1 µM): 0.525 | relative viability (NCI-H2085; first compound 0.01 µM): 0.603 | relative viability (NCI-H2085; first compound 0.03162 µM): 0.871 | relative viability (NCI-H2085; first compound 0.1 µM): 0.836 | relative viability (NCI-H2085; first compound 0.3162 µM): 0.765 | relative viability (NCI-H2085; first compound 1 µM): 0.554 | relative viability (SK-LU-1; first compound 0.01 µM): 0.35 | relative viability (SK-LU-1; first compound 0.03162 µM): 0.384 | relative viability (SK-LU-1; first compound 0.1 µM): 0.203 | relative viability (SK-LU-1; first compound 0.3162 µM): 0.136 | relative viability (SK-LU-1; first compound 1 µM): 0.157 | relative viability (NCI-H2342; first compound 0.01 µM): 0.612 | relative viability (NCI-H2342; first compound 0.03162 µM): 0.714 | relative viability (NCI-H2342; first compound 0.1 µM): 0.611 | relative viability (NCI-H2342; first compound 0.3162 µM): 0.586 | relative viability (NCI-H2342; first compound 1 µM): 0.588 | relative viability (NCI-H2126; first compound 0.01 µM): 0.735 | relative viability (NCI-H2126; first compound 0.03162 µM): 0.772 | relative viability (NCI-H2126; first compound 0.1 µM): 0.783 | relative viability (NCI-H2126; first compound 0.3162 µM): 0.871 | relative viability (NCI-H2126; first compound 1 µM): 0.807 | relative viability (NCI-H1915; first compound 0.01 µM): 0.629 | relative viability (NCI-H1915; first compound 0.03162 µM): 0.635 | relative viability (NCI-H1915; first compound 0.1 µM): 0.64 | relative viability (NCI-H1915; first compound 0.3162 µM): 0.638 | relative viability (NCI-H1915; first compound 1 µM): 0.571
